Data on 29 molecules can be found in US20240327411A1, “SIRT6 ACTIVATORS” (The Board of Regents of The University of Texas System, priority 2022, published 2024).

Values joined by “and” are separate entries in the source; they are usually repeats but may differ in a detail not shown here. Identical values can stand only once.

This assay addresses Sirt6 (Homo sapiens, UniProt Q8N6T7). Put plainly: Sirt6-dependent peptide deacetylation, FLUOR DE LYS / Sirt6 fluorometric activity kit. Format: biochemical. The note with it: mean ± SD, at least two independent experiments; for Activation Fold 100 μM: compound at 100 μM; for Activation Fold 30 μM: compound at 30 μM.

Chain of Sirt6 (Q8N6T7 whole entry): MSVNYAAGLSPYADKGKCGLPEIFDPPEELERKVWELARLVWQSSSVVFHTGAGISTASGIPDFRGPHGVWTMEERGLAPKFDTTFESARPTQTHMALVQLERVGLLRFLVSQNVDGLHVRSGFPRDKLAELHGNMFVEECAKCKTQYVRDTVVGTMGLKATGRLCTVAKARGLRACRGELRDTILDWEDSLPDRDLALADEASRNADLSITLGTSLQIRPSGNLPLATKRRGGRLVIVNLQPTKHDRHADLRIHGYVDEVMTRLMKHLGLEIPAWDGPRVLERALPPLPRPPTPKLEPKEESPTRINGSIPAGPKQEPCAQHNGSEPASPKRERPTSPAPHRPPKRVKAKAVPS

For the molecule `Clc1ncccc1C1Nc2ccccc2-n2cccc21` (stereo not shown) [Compound 14, 4-(2-Chloropyridin-3-yl)-4,5-dihydropyrrolo[1,2-a]quinoxaline], the “Activation Fold 100 μM” value is listed as 1.04 ± 0.02 fold.

For the molecule `CN(C)c1ncccc1C1Nc2ccccc2-n2cccc21` (stereo not shown) [Compound 15, 3-(4,5-Dihydropyrrolo[1,2-a]quinoxalin-4-yl)-N,N-dimethylpyridin-2-amine], the “Activation Fold 100 μM” value worked out at 1.08 ± 0.09 fold.

Regarding `c1ccc2c(c1)NC(c1cccnc1N1CCC1)c1cccn1-2` (stereo not shown) [Compound 16, 4-(2-(Azetidin-1-yl)pyridin-3-yl)-4,5-dihydropyrrolo[1,2-a]quinoxaline], the “Activation Fold 100 μM” value stood at 1.38 ± 0.11 fold.

On to `OC1CN(c2ncccc2C2Nc3ccccc3-n3cccc32)C1` (stereo not shown) [Compound 17, 1-(3-(4,5-Dihydropyrrolo[1,2-a]quinoxalin-4-yl)pyridin-2-yl)azetidin-3-ol], for which the “Activation Fold 100 μM” value is 1.47 ± 0.10 fold.

As for `c1ccc2c(c1)NC(c1cccnc1N1CCCC1)c1cccn1-2` (stereo not shown) [Compound 18, 4-(2-(Pyrrolidin-1-yl)pyridin-3-yl)-4,5-dihydropyrrolo[1,2-a]quinoxaline], the “Activation Fold 100 μM” value was found to be 1.22 ± 0.03 fold.

For `CN1CCCN(c2ncccc2C2Nc3ccccc3-n3cccc32)CC1` (stereo not shown) [Compound 19, 4-(2-(4-Methyl-1,4-diazepan-1-yl)pyridin-3-yl)-4,5-dihydropyrrolo[1,2-a]quinoxaline], the “Activation Fold 30 μM” value is 2.18 ± 0.02 fold and the “Activation Fold 100 μM” value amounted to 4.23 ± 0.06 fold.

On to `CN1C[C@@H]2CN(c3ncccc3C3Nc4ccccc4-n4cccc43)C[C@@H]2C1` (stereo partly drawn) [Compound 20, 4-(2-((3aR,6aS)-5-Methylhexahydropyrrolo[3,4-c]pyrrol-2(1H)-yl)pyridin-3-yl)-4,5-dihydropyrrolo[1,2-a]quinoxaline], for which the “Activation Fold 30 μM” value was determined as 2.00 ± 0.11 fold and the “Activation Fold 100 μM” value is reported as 4.24 ± 0.04 fold.

`CN1CCN(c2ncccc2C2Nc3ccccc3-n3cccc32)CC1` (stereo not shown) [Compound 21, 4-(2-(4-Methylpiperazin-1-yl)pyridin-3-yl)-4,5-dihydropyrrolo[1,2-a]quinoxaline]: the “Activation Fold 30 μM” value was 2.44 fold and 2.44 ± 0.04 fold; the “Activation Fold 100 μM” value is 4.62 fold and 4.62 ± 0.12 fold.

As for `CC(=O)N1CCN(c2ncccc2C2Nc3ccccc3-n3cccc32)CC1` (stereo not shown) [Compound 22, 1-(4-(3-(4,5-Dihydropyrrolo[1,2-a]quinoxalin-4-yl)pyridin-2-yl)piperazin-1-yl)ethan-1-one], the “Activation Fold 30 μM” value is 1.60 ± 0.01 fold; the “Activation Fold 100 μM” value is 2.74 fold and 2.74 ± 0.10 fold.

As to `CS(=O)(=O)N1CCN(c2ncccc2C2Nc3ccccc3-n3cccc32)CC1` (stereo not shown) [Compound 23, 4-(2-(4-(Methylsulfonyl)piperazin-1-yl)pyridin-3-yl)-4,5-dihydropyrrolo[1,2-a]quinoxaline], the “Activation Fold 30 μM” value is on record as 2.03 ± 0.02 fold; the “Activation Fold 100 μM” value was 3.63 fold and 3.63 ± 0.10 fold.

In the case of `FC1(F)CCN(c2ncccc2C2Nc3ccccc3-n3cccc32)CC1` (stereo not shown) [Compound 25, 4-(2-(4,4-Difluoropiperidin-1-yl)pyridin-3-yl)-4,5-dihydropyrrolo[1,2-a]quinoxaline], the “Activation Fold 100 μM” value was ~2 fold and 1.54 ± 0.03 fold.

As for `O=S1(=O)CCN(c2ncccc2C2Nc3ccccc3-n3cccc32)CC1` (stereo not shown) [Compound 26, 4-(3-(4,5-Dihydropyrrolo[1,2-a]quinoxalin-4-yl)pyridin-2-yl)thiomorpholine 1,1-dioxide], the “Activation Fold 30 μM” value is on record as 1.32 ± 0.01 fold; the “Activation Fold 100 μM” value is ~2 fold and 2.24 ± 0.09 fold.

As for `OC1CCN(c2ncccc2C2Nc3ccccc3-n3cccc32)CC1` (stereo not shown) [Compound 27, 1-(3-(4,5-Dihydropyrrolo[1,2-a]quinoxalin-4-yl)pyridin-2-yl)piperidin-4-ol], the “Activation Fold 30 μM” value was found to be 1.29 ± 0.05 fold; the “Activation Fold 100 μM” value is ~2 fold and 2.38 ± 0.15 fold.

As to `c1ccc2c(c1)NC(c1cccnc1N1CCC(N3CCCC3)CC1)c1cccn1-2` (stereo not shown) [Compound 29, 4-(2-(4-(Pyrrolidin-1-yl)piperidin-1-yl)pyridin-3-yl)-4,5-dihydropyrrolo[1,2-a]quinoxaline], the “Activation Fold 30 μM” value is 1.89 ± 0.01 fold; the “Activation Fold 100 μM” value was 3.44 fold and 3.44 ± 0.07 fold.

Regarding `COCCCN1CCN(c2ncccc2C2Nc3ccccc3-n3cccc32)CC1` (stereo not shown) [Compound 37, 4-(2-(4-(3-Methoxypropyl)piperazin-1-yl)pyridin-3-yl)-4,5-dihydropyrrolo[1,2-a]quinoxaline], the “Activation Fold 30 μM” value was found to be 3.13 ± 0.14 fold and the “Activation Fold 100 μM” value was 5.02 ± 0.25 fold.

As to `CN(C)C(=O)CN1CCN(c2ncccc2C2Nc3ccccc3-n3cccc32)CC1` (stereo not shown) [Compound 39, 2-(4-(3-(4,5-Dihydropyrrolo[1,2-a]quinoxalin-4-yl)pyridin-2-yl)piperazin-1-yl)-N,N-dimethylacetamide], the “Activation Fold 30 μM” value was found to be 3.21 ± 0.06 fold and the “Activation Fold 100 μM” value was determined as 6.60 ± 0.22 fold.

On to `N#CCN1CCN(c2ncccc2C2Nc3ccccc3-n3cccc32)CC1` (stereo not shown) [Compound 40, 2-(4-(3-(4,5-Dihydropyrrolo[1,2-a]quinoxalin-4-yl)pyridin-2-yl)piperazin-1-yl)acetonitrile], for which the “Activation Fold 30 μM” value stood at 2.37 ± 0.04 fold and the “Activation Fold 100 μM” value turned out to be 4.74 ± 0.26 fold.

Consider `NC(=O)CN1CCN(c2ncccc2C2Nc3ccccc3-n3cccc32)CC1` (stereo not shown) [Compound 41, 2-(4-(3-(4,5-Dihydropyrrolo[1,2-a]quinoxalin-4-yl)pyridin-2-yl)piperazin-1-yl)acetamide], for which the “Activation Fold 30 μM” value turned out to be 1.73 ± 0.12 fold and the “Activation Fold 100 μM” value came to 3.43 ± 0.48 fold.

With `O=C(CCl)N1CCN(c2ncccc2C2Nc3ccccc3-n3cccc32)CC1` (stereo not shown) [Compound 42, 2-Chloro-1-(4-(3-(4,5-dihydropyrrolo[1,2-a]quinoxalin-4-yl)pyridin-2-yl)piperazin-1-yl)ethan-1-one], the “Activation Fold 30 μM” value is recorded as 1.93 ± 0.02 fold and the “Activation Fold 100 μM” value worked out at 2.84 ± 0.28 fold.

`CN(C)CC(=O)N1CCN(c2ncccc2C2Nc3ccccc3-n3cccc32)CC1` (stereo not shown) [Compound 43, 1-(4-(3-(4,5-Dihydropyrrolo[1,2-a]quinoxalin-4-yl)pyridin-2-yl)piperazin-1-yl)-2-(dimethylamino)ethan-1-one]: the “Activation Fold 30 μM” value is given as 2.31 ± 0.07 fold and the “Activation Fold 100 μM” value was found to be 3.78 ± 0.15 fold.

Turning to `O=C(N1CCN(c2ncccc2C2Nc3ccccc3-n3cccc32)CC1)N1CC(O)C1` (stereo not shown) [Compound 44, (4-(3-(4,5-Dihydropyrrolo[1,2-a]quinoxalin-4-yl)pyridin-2-yl)piperazin-1-yl)(3-hydroxyazetidin-1-yl)methanone], the “Activation Fold 30 μM” value is 2.67 fold and 2.67 ± 0.19 fold; the “Activation Fold 100 μM” value was 5.26 fold and 5.26 ± 0.13 fold.

`c1ccc2c(c1)NC(c1cccnc1N1CCN(CCN3CCC3)CC1)c1cccn1-2` (stereo not shown) [Compound 45, 4-(2-(4-(2-(Azetidin-1-yl)ethyl)piperazin-1-yl)pyridin-3-yl)-4,5-dihydropyrrolo[1,2-a]quinoxaline]: the “Activation Fold 30 μM” value is given as 2.81 ± 0.01 fold and the “Activation Fold 100 μM” value was 5.85 ± 0.01 fold.

As for `O=C1CCCN1CCN1CCN(c2ncccc2C2Nc3ccccc3-n3cccc32)CC1` (stereo not shown) [Compound 48, 1-(2-(4-(3-(4,5-Dihydropyrrolo[1,2-a]quinoxalin-4-yl)pyridin-2-yl)piperazin-1-yl)ethyl)pyrrolidin-2-one], the “Activation Fold 30 μM” value worked out at 3.48 ± 0.02 fold and the “Activation Fold 100 μM” value is listed as 5.64 ± 0.43 fold.

Consider `c1ccc2c(c1)NC(c1cccnc1N1CCN(CCN3CCOCC3)CC1)c1cccn1-2` (stereo not shown) [Compound 49, 4-(2-(4-(3-(4,5-Dihydropyrrolo[1,2-a]quinoxalin-4-yl)pyridin-2-yl)piperazin-1-yl)ethyl)morpholine], for which the “Activation Fold 30 μM” value is listed as 3.02 ± 0.04 fold and the “Activation Fold 100 μM” value is given as 5.99 ± 0.21 fold.

As to `CN(C)CCN1CCN(c2ccccc2C2Nc3ccccc3-n3cccc32)CC1` (stereo not shown) [Compound 63, 2-(4-(2-(4,5-Dihydropyrrolo[1,2-a]quinoxalin-4-yl)phenyl)piperazin-1-yl)-N,N-dimethylethan-1-amine], the “Activation Fold 30 μM” value is 2.62 fold and 2.62 ± 0.34 fold; the “Activation Fold 100 μM” value is 5.43 fold and 5.43 ± 0.21 fold.

Regarding `CN(C)CCN1CCN(c2ncccc2C2Oc3ccccc3-n3cccc32)CC1` (stereo not shown) [Compound 66, 2-(4-(3-(4H-Benzo[b]pyrrolo[1,2-d][1,4]oxazin-4-yl)pyridin-2-yl)piperazin-1-yl)-N,N-dimethylethan-1-amine], the “Activation Fold 30 μM” value is 2.67 fold and 2.67 ± 0.01 fold; the “Activation Fold 100 μM” value is 4.23 fold and 4.23 ± 0.22 fold.

Take `Cc1ccc2c(c1)-n1cccc1C(c1cccnc1N1CCN(CCN(C)C)CC1)O2` (stereo not shown) [Compound 68, N,N-Dimethyl-2-(4-(3-(8-methyl-4H-benzo[b]pyrrolo[1,2-d][1,4]oxazin-4-yl)pyridin-2-yl)piperazin-1-yl)ethan-1-amine]: the “Activation Fold 30 μM” value came to 2.99 ± 0.05 fold and the “Activation Fold 100 μM” value came to 4.56 ± 0.04 fold.

With `COc1ccc2c(c1)-n1cccc1C(c1cccnc1N1CCN(CCN(C)C)CC1)O2` (stereo not shown) [Compound 69, 2-(4-(3-(8-Methoxy-4H-benzo[b]pyrrolo[1,2-d][1,4]oxazin-4-yl)pyridin-2-yl)piperazin-1-yl)-N,N-dimethylethan-1-amine], the “Activation Fold 30 μM” value was 4.51 ± 0.06 fold and the “Activation Fold 100 μM” value turned out to be 5.65 ± 0.22 fold.

Regarding `CN(C)CCN1CCN(c2ncccc2C2Oc3ccc(F)cc3-n3cccc32)CC1` (stereo not shown) [Compound 70, 2-(4-(3-(8-Fluoro-4H-benzo[b]pyrrolo[1,2-d][1,4]oxazin-4-yl)pyridin-2-yl)piperazin-1-yl)-N,N-dimethylethan-1-amine], the “Activation Fold 30 μM” value is reported as 1.84 ± 0.04 fold; the “Activation Fold 100 μM” value is 2.53 fold and 2.53 ± 0.05 fold.
